Reference: patent publication US8608919B2, “Impedimetric sensor and applications thereof” (Consejo Superior de Investigaciones Científicas, priority 2007, dated 2013)
pIC50: −log10 of the molar value. ≈ marks a conversion by molar mass, not a printed value.

Assays:
Type in all cases: binding, rabbits of the New Zealand variety
[1] = test system: antiserums produced for sulphonamide-type antibiotics; test: Direct ELISA format with HRP enzymatic tracers of competition haptens (preliminary studies)
Text: Biological molecular receptors (antibodies) were designed and produced to analyse antibiotics from the family of sulfamides. The preparation of the biological receptors was approached by means of the design of immunization haptens using molecular modelling strategies. As a consequence of these studies, the synthesis of 2 haptens or antigens was proposed. One of them (hapten 1) kept the greater part of the structure of the sulfamides, while the second (hapten 2) was only a fragment which conserved the part common to most of the compounds of this family of antibiotics. The two haptens were combined to the HCH (horseshoe crab hemocyanin) protein and to the BSA (bovine serum albumin) protein by using methods described in the literature. The covalent bonding of the haptens or antigens and the quantification of the number of the remainder of antigens bonded to the protein was carried out by means of a mass spectrometer. Following this, rabbits of the New Zealand variety were immunised with these antigens by applying a six-month long immunisation protocol, during which the progress of the immune response was controlled by means of extracting small blood samples.
With the aim of evaluating the avidity of the antiserums produced by the sulphonamide-type antibiotics, it was necessary to establish a competitive-type immunochemical assay. […]

[2] = test system: specific sulfamide antiserum (#155); test: Impedimetric immunosensor of the invention, competitive immunoassay calibrated with sulfapyridine; details: Sensor; [Ab] 1/2000; [AT] 0.8 μg/ml (2d-BSA); from four-parameter fit of calibration curve
Protocol: Before proceeding to the functionalization, the electrodes were cleaned in a solution of 70% absolute ethanol and 30% Milli-Q water. Afterwards, the devices were submerged in a solution of 2.5% NaOH and Milli-Q water for 10 minutes, followed by a rinsing in 100 mL of Milli-Q water, in order to neutralize the action of the NaOH. Finally, the electrodes were cleaned in ethanol and dried in nitrogen current.
The electrodes were introduced into a GPTS [(3-glycidoxipropil) trimethoxisilane] solution with 2.5% ethanol anhydride for three hours, at ambient temperature and with orbital agitation. After this time had passed, the devices were washed in ethanol and dried in nitrogen current. […]
Biological molecular receptors (antibodies) were designed and produced to analyse antibiotics from the family of sulfamides. […] The covalent bonding of the haptens or antigens and the quantification of the number of the remainder of antigens bonded to the protein was carried out by means of a mass spectrometer. […]
Sulfapyridine pattern solutions prepared in PBST (0.64 nM-50000 nM, in PBST) were added to the electrodes (150 μL/electrode), followed by a solution with the specific sulfamide antiserum (#155) obtained (1/2000 in PBST, 150 μL/electrode). […] The reaction was measured in a low conductivity solution. […]

[3] = test system: specific sulfamide antiserum; test: ELISA immunoassay, calibration with sulfapyridine; details: [Ab] 1/8000, [AT] 0.625 μg/ml, from four-parameter fit of calibration curve

IC50 [1] [ng/mL]	pIC50 [2]	pIC50 [3]	SMILES
~9 (≈ 0.036 µM)	–	–	Nc1ccc(S(=O)(=O)Nc2cnccn2)cc1 [sulfapyrazine]
–	7.85	8.03	Nc1ccc(S(=O)(=O)Nc2ccccn2)cc1 [sulfapyridine]
